EC50 and IC50 data for one compound are collected here from ChEMBL document CHEMBL1201862, “PubChem BioAssay data set” (2004).

For experiment [1], the target named is T1, Corticotropin-releasing factor receptor 2/Corticotropin-releasing factor-binding protein (Homo sapiens, UniProt P24387+Q13324).
T1 sequence (Q13324 whole entry): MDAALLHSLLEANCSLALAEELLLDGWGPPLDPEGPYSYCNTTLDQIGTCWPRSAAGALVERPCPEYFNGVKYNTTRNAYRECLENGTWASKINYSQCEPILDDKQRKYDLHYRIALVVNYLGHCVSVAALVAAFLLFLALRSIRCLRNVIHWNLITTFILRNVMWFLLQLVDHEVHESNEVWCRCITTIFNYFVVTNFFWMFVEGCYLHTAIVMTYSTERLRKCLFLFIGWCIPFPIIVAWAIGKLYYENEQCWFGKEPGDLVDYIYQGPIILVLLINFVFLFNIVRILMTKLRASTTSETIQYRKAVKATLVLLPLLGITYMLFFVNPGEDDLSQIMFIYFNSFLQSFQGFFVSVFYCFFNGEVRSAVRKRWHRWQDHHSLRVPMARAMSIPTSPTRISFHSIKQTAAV
T1 sequence (P24387 whole entry): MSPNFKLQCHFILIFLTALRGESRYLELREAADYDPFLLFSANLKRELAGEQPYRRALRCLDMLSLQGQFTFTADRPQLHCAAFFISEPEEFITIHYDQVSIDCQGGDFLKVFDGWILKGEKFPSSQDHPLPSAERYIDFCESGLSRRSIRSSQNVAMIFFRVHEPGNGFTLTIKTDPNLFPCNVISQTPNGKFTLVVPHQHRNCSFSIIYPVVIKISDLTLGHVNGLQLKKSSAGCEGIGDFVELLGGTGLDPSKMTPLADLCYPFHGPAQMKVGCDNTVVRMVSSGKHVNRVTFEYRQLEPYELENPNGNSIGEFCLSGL
In words: activators of CRF receptor 2 with binding protein – uHTS hits, confirmation (AID 602473). It is filed as functional. As to conditions: read-out: EC50_Mean.

The target in experiment [2] is T1, Corticotropin-releasing factor receptor 2/Corticotropin-releasing factor-binding protein. In words: Dose Response confirmation of uHTS hits for small molecule antagonists of the CRF-binding protein and CRF-R2 receptor complex. As to conditions: read-out: IC50_Mean. It is filed as functional.
Experiment [3] can be described thus: blockers of CRF-binding protein–CRF-R2 complex – cell-based, uHTS hits, 384-well, dose response (AID 651639). It is filed as functional, Homo sapiens. As to conditions: read-out: IC50_Mean.

Molecules are shown by their SMILES. Activity calls are given as the source filed them. Where only a bound is given, the exact number is not on record here.

For the compound `Cc1cc(C)cc(N(C(=O)c2nsc(Cl)c2Cl)C(C(=O)NC2CCCC2)c2ccc(O)cc2)c1` (stereo not drawn), in experiment [1], the EC50 is > 53 µM (inactive). Further, the IC50 in experiment [2] was 6.02 µM (active); in experiment [3], > 20 µM (inactive).
